Reference: PMC7442133, “Reduced treatment frequencies with bumped kinase inhibitor 1369 are effective against porcine cystoisosporosis” (International Journal for Parasitology: Drugs and Drug …, 2020)
Values joined by “and” are separate entries in the source; they are usually repeats but may differ in a detail not shown here. Equal entries are not always repeated.

Key:
[1] = test system: C. suis (strain Wien-I); assay: Fecal score and diarrhea of experimentally infected suckling piglets; assay type: in vivo, Cystoisospora suis
[2] = test system: C. suis sporozoites; assay: Invasion inhibition: sporozoites pre-incubated with BKI 1369, free merozoites counted 9 dpi in IPEC-1 cultures; assay type: cell-based, Cystoisospora suis
Experimental: (§1) The laboratory strain C. suis Wien I ([Joachim and Mundt, 2011]), was maintained by passage in suckling piglets every 3–6 months and infectivity in vivo was assessed regularly at the Institute of Parasitology, University of Veterinary Medicine, Vienna. Oocysts were purified from collected feces, brought to sporulation and stored as described elsewhere ([Worliczek et al., 2013]). For in vitro studies, sporozoites were excysted ([Worliczek et al., 2013]), enumerated with a hemocytometer and used immediately for infection of semi-permanent intestinal porcine epithelial cells (IPEC-1). For in vivo studies, sporulated oocysts were washed with tap water and enumerated prior to infection of piglets.
IPEC-1 cells were maintained in culture medium at 37 °C and 5% CO2 (DHEM/HAM12 supplemented with 5% fetal calf serum and penicillin/streptomycin; Gibco via Thermo Fisher, Vienna, Austria). Cells (4 × 10^4) were used to seed 24-well plates and grown to confluence. […] Cell viability in the presence of DMSO and BKIs was determined by colorimetric cell proliferation (WST-1) assays ([Shrestha et al., 2019]). […]
In order to test whether BKI 1369 affects initial host cell invasion by C. suis, freshly excysted sporozoites were pre-incubated with BKI 1369 or DMSO for 6 h at 37 °C. […] Readout for both growth (merozoite replication) and invasion-inhibition experiments was microscopical evaluation by counting free merozoites 9 days post-infection (dpi) from culture supernatants. Supernatants were collected and free merozoites were counted in pooled samples at 9 dpi from quadruplicate wells in C-Chip disposable hemocytometers (NanoEnTek/Roth Lactan, Graz, Austria). […]
Statistical calculations for in vivo trials were performed with RStudio version 1.1.453 (RStudio Team, 2018), descriptive statistics with Microsoft Excel 2010 (Microsoft Inc., Vienna, Austria) and GraphPad Prism version 5.04 for Windows (GraphPad Software, San Diego, California USA). […] In vitro assays were evaluated by t-tests with significance reported at P < 0.05. […]

[3] = test system: C. suis (strain Wien-I); assay: Oocyst excretion of experimentally infected suckling piglets (autofluorescence, modified McMaster); assay type: in vivo, Cystoisospora suis; conditions: for Start of oocyst excretion (study day): controls started SD 8
[4] = test system: C. suis merozoites; assay: Merozoite replication (growth) inhibition in infected IPEC-1 cultures, free merozoites counted 9 dpi; assay type: cell-based, Cystoisospora suis; conditions: for Merozoite replication at 9 dpi: 50 nM, P < 0.05 vs DMSO-only and no-treatment; for Decrease of total merozoite counts: 400 nM once at 2 dpi, vs DMSO-only and no-treatment controls
Experimental: as §1
IPEC-1 cells were maintained in culture medium at 37 °C and 5% CO2 (DHEM/HAM12 supplemented with 5% fetal calf serum and penicillin/streptomycin; Gibco via Thermo Fisher, Vienna, Austria). Cells (4 × 10^4) were used to seed 24-well plates and grown to confluence. All BKI compounds were stored as 20 mM stock solutions in 100% dimethyl sulfoxide (DMSO) at −20 °C. Cell viability in the presence of DMSO and BKIs was determined by colorimetric cell proliferation (WST-1) assays ([Shrestha et al., 2019]). In addition IPEC-1 cells were infected with serial dilutions of C. suis sporozoites, obtained after excystation to evaluate the growth curves of merozoites during 5–9 days of cultivation. To determine the effect of BKI 1369 on parasite replication, sporozoites (5 × 10^2) were added to each well one day after seeding of host cells and incubated with different concentrations of BKI 1369 at 40 °C for various time periods or a DMSO control, in triplicate.
In order to test whether BKI 1369 affects initial host cell invasion by C. suis, freshly excysted sporozoites were pre-incubated with BKI 1369 or DMSO for 6 h at 37 °C. Subsequently, sporozoites were washed with medium and used for infection of cell monolayers (5 × 10^2/well), in triplicate. Readout for both growth (merozoite replication) and invasion-inhibition experiments was microscopical evaluation by counting free merozoites 9 days post-infection (dpi) from culture supernatants. Supernatants were collected and free merozoites were counted in pooled samples at 9 dpi from quadruplicate wells in C-Chip disposable hemocytometers (NanoEnTek/Roth Lactan, Graz, Austria). All assays included DMSO and no-treatment controls in quadruplicate.
Statistical calculations for in vivo trials were performed with RStudio version 1.1.453 (RStudio Team, 2018), descriptive statistics with Microsoft Excel 2010 (Microsoft Inc., Vienna, Austria) and GraphPad Prism version 5.04 for Windows (GraphPad Software, San Diego, California USA). Differences in clinical and parasitological parameters between groups were analyzed with ANOVA in the case of normal distribution and variance homogeneity of the data, or a Kruskal-Wallis rank sum test if this was not the case. In the event of significance for the omnibus tests, parametric or non-parametric post-hoc tests for multiple comparisons were performed (according to Tukey and Conover, respectively), with P-value adjustment after Bonferroni. In vitro assays were evaluated by t-tests with significance reported at P < 0.05. For testing of efficacy in vitro, the percentage of growth/invasion inhibition was calculated as follows: % inhibition = (1−No. of merozoites counted at 9 dpi in BKI 1369 treated culture /No. of merozoites counted at 9 dpi in DMSO-only treated culture)x100

[5] = Exp I group A: 1 × 20 mg/kg BW oral, SD 3 (0 dpi)
[6] = Exp I group B: 1 × 20 mg/kg BW oral, SD 5 (2 dpi)
[7] = Exp I group C: 2 × 20 mg/kg BW oral, SD 5 & SD 7 (2 & 4 dpi)
[8] = Exp II group W: 1 × 20 mg/kg BW oral, SD 5 (2 dpi)
[9] = Exp II group X: 1 × 10 mg/kg BW oral, SD 5 (2 dpi)
[10] = Exp II group Y: 1 × 5 mg/kg BW oral, SD 5 (2 dpi)
[11] = single treatment 20 mg/kg BW 2 dpi
[12] = single treatment 20 mg/kg BW on the day of infection

## CCOc1ccc2cc(-c3nn(CC4CCN(C)CC4)c4ncnc(N)c34)ccc2n1 [BKI 1369]
[1]; [5]
  % piglets with diarrhea at least once: 60%
  Number of diarrhea days ± SD: 1.4 ± 1.71 days
[1]; [6]
  % piglets with diarrhea at least once: 18.18%
  Number of diarrhea days ± SD: 0.27 ± 0.65 days
[1]; [7]
  % piglets with diarrhea at least once: 27.27%
  Number of diarrhea days ± SD: 0.45 ± 0.93 days
[1]; Exp I: single dose 20 mg/kg BW at 2 dpi
  Mean FS and diarrhea days compared to control piglets (in words): significantly lower mean FS and fewer diarrhea days
[1]; Exp I: single dose of 20 mg/kg BW on the day of infection
  Effect on diarrhea (in words): failed to reduce occurrence of diarrhea
[1]; Exp I: two doses 20 mg/kg BW at 2 and 4 dpi
  Mean FS and diarrhea days compared to control piglets (in words): significantly lower mean FS and fewer diarrhea days
[1]; [8]
  % piglets with diarrhea at least once: 10%
  Number of diarrhea days ± SD: 0.2 ± 0.63 days
[1]; [9]
  % piglets with diarrhea at least once: 40%
  Number of diarrhea days ± SD: 0.5 ± 0.70 days
[1]; [10]
  % piglets with diarrhea at least once: 77.80%
  Number of diarrhea days ± SD: 2.6 ± 1.88 days
[1]; Exp II: 5 mg/kg BW at 2 dpi
  Effect on diarrhea (in words): completely failed to control diarrhea
[1]; Exp II: 10 mg/kg BW at 2 dpi
  Effect on diarrhea (in words): effectively suppressed diarrhea
[1]; Exp II: 20 mg/kg BW at 2 dpi
  Effect on diarrhea (in words): effectively suppressed diarrhea
[1]; irrespective of time points and frequencies of treatment
  Number of diarrhea days compared to control piglets (in words): reduced number of diarrhea days
[2]; sporozoites pre-incubated 6 h at 37 °C, washed, IPEC-1, P < 0.05 vs DMSO-only and no-treatment
  Pre-incubation concentrations that significantly reduced total merozoite counts at 9 dpi: ≥ 200 nM
[2]; sporozoites pre-incubated 6 h at 37 °C, washed, IPEC-1, vs DMSO-only and no-treatment
  Pre-incubation concentrations that completely failed to inhibit host cell invasion: ≤ 100 nM
[2]; unless treatment was prolonged post-infection
  Inhibition of infection in vitro by pre-incubation of sporozoites: completely failed to inhibit the infection
[3]; Exp I group A: 1 × 20 mg/kg BW day of infection
  Start of oocyst excretion (study day): 11 SD
[3]; [5]
  Mean AUC for OpG: 4861.8
[3]; Exp I group A: 1 × 20 mg/kg BW oral, SD 3 (0 dpi), 20 mg/kg
  Number of excretion days ± SD (mean duration of oocyst excretion): 1 ± 1.6 days and 1 ± 1.56 days
[3]; Exp I group A: 1 × 20 mg/kg BW, day of infection
  Piglets that excreted oocysts: 50%
[3]; Exp I group B: 1 × 20 mg/kg BW 2 dpi, 11 piglets
  Number of piglets that excreted oocysts: two
[3]; Exp I group B: 1 × 20 mg/kg BW 2 dpi
  Start of oocyst excretion (study day): 16 SD
[3]; [6]
  Mean AUC for OpG: 333
  Number of excretion days ± SD: 0.45 ± 1.03 days
[3]; Exp I group C: two doses of 20 mg/kg BW at 2 and 4 dpi, 20 mg/kg
  Oocyst excretion (in words): completely suppressed oocyst excretion
[3]; Exp II group W: 1 × 20 mg/kg BW 2 dpi, 10 piglets, excreted only once on SD 16
  Number of piglets that excreted oocysts: one
[3]; [8]
  Mean AUC for OpG: 99.9
  Number of excretion days ± SD: 0.1 ± 0.32 days
[3]; Exp II group W: single dose of 20 mg/kg BW 2 dpi
  Oocyst excretion (in words): effectively suppressed
[3]; [9]
  Mean AUC for OpG: 20129.85
[3]; Exp II group X: 1 × 10 mg/kg BW oral, SD 5 (2 dpi), 10 mg/kg
  Number of excretion days ± SD (mean duration of oocyst excretion): 1.3 ± 2.7 days and 1.3 ± 2.75 days
[3]; Exp II group X: 1 × 10 mg/kg BW, 2 dpi
  Piglets that excreted oocysts: 50%
[3]; Exp II group X: single dose of 10 mg/kg BW 2 dpi
  Number of piglets that excreted oocysts: 5 out of 10
[3]; [10]
  Mean AUC for OpG: 56610
[3]; Exp II group Y: 1 × 5 mg/kg BW oral, SD 5 (2 dpi), 5 mg/kg
  Number of excretion days ± SD (mean duration of oocyst excretion): 3.6 ± 1.9 days and 3.6 ± 1.94 days
[3]; Exp II group Y: 1 × 5 mg/kg BW, 2 dpi
  Piglets that excreted oocysts: 90%
[3]; single application of 5 mg/kg BW 2 dpi
  Control of parasitic shedding and diarrhea (in words): completely failed to control parasitic shedding and diarrhea
[3]; [11]
  Piglets in which oocyst excretion was suppressed: 82%
  Reduction of quantitative oocyst excretion in those that shed oocysts: 98.4%
[3]; [12]
  Piglets in which oocyst excretion was suppressed: 50%
  Reduction of quantitative oocyst excretion in those that shed oocysts: 95.2%
[3]; single treatment 2 dpi, piglets
  Minimal effective dose against cystoisosporosis: 10 mg/kg BW
[4]; incubation 0–3 dpi
  Merozoite replication at 9 dpi: significantly inhibited merozoite replication
[4]; incubation 3–6 dpi
  Merozoite replication at 9 dpi: significantly inhibited merozoite replication
[4]
  Decrease of total merozoite counts: 96.1%
[4]; single application 2 dpi
  Concentrations giving significant reduction of merozoite replication at 9 dpi: ≥ 200 nM

## CCOc1ccc2cc(-c3nn(CC4CCNCC4)c4ncnc(N)c34)ccc2n1 [BKI 1318]
[4]
  Decrease of total merozoite counts: 85.1%
